The results in this text go back to a melting point compilation (Tetko et al.; mined from patent text by program, amines drawn as free bases though some values may be those of a salt).

`CC/C(=C\C=C\C(O)(C(F)(F)F)C(F)(F)F)c1cccc(CCc2ccc(CO)c(CO)c2)c1`: the melting point (as a rule, the temperature, or range, at which the solid turns liquid) is 104 °C.

With `COCCNc1nc(-n2ccnc2)nc2ccc(C(=O)OC)cc12`, the melting point was 252 to 253 °C.

`CS(=O)(=O)N1CCC=CCC1`: the melting point lay in the range of 95 to 96 °C.

The compound `O=[N+]([O-])c1ccccc1C#Cc1c(F)c(F)nc(F)c1F` came in with a melting point of 109 to 110 °C.

`CNCCOc1ccc2ccc(NC(=O)c3ccc(OC)cc3)nc2n1` came in with a melting point of 146 °C.

Turning to `COc1cc2c(cc1O)CCN(Cc1cc(OC)c(OC)cc1OC)C2`, the melting point lay within 152 to 153 °C.

The compound `O=C(CCl)NCCCn1cc(-c2ccccc2)c2ccccc2c1=O` returned a melting point of 140 °C.

In turn, `CCOc1ncc(C(C)=O)cc1-c1nc2c(CC)n(CC3CC3)nc2c(=O)[nH]1` gave a melting point of 200 to 201 °C.

In turn, `CCC1(CC)NC(=O)N(c2ccc(Cl)c(C(F)(F)F)c2)C1=O` came in with a melting point of 86 to 87 °C.

As to `COC(=O)C1=CCC(=C2CCC3=C(N=C(C(C)C)C(C(C)C)N3)C2=O)C=C1` (centres undefined), the melting point is 100 to 102 °C.

In turn, `Clc1ccc(-c2ccc3nncn3n2)cc1` returned a melting point of 216 to 218 °C.

In turn, `COC(=O)C(=O)c1c[nH]c2ccccc12` registered a melting point of 226 to 228 °C.

For the compound `CC(C)(O)C(C(=O)O)c1ccc(Cl)cc1` (centres undefined), the melting point came out at 65 °C.

Consider `C=CCn1c(C)c(C)c2cnnc(OCc3ccc(C(F)(F)F)cc3)c21`, for which the melting point was in the range of 95 to 96 °C.

`CC(C)Sc1cc2c(cc1Cl)N=C(CCl)NS2(=O)=O` yielded a melting point of 248 to 250 °C.

Consider `CC1(C)CCC(C)(C)c2cc(-c3cc(C=CC(=O)O)ccc3O)c(OCc3ccc(Cl)cc3)cc21`, for which the melting point was in the range of 147 to 149 °C.

In turn, `CCc1cc(=O)c2nc(OC)ccc2[nH]1` displayed a melting point of 279 to 281 °C.

In turn, `N#CC1CC(c2c(F)cccc2F)=NC1c1ccc(-c2ccc(OC(F)(F)F)cc2)cc1` (centres undefined) showed a melting point of 145 °C.

Compound `COc1nc(=O)c(Cc2ccc(C)nc2)c[nH]1` returned a melting point of 145 to 147 °C.

`O=C(NC1C2CC3CC(C2)CC1C3)N1CCC2(C=Cc3ccccc32)CC1` (centres undefined) came in with a melting point of 189 to 191 °C.

The compound `CCCNC(=O)c1ccccc1` yielded a melting point of 87.6 to 88.9 °C.

The compound `CCc1ccc(NCc2ccc(N(C)C)cc2)cc1` yielded a melting point of 64 to 66 °C.

Regarding `COCCc1nc2c(N)nc3cc(OCc4cccc(C#N)c4)ccc3c2n1CC(C)(C)O`, the melting point is 196 to 197 °C.

Regarding `NC(C(=O)c1ccccc1)[N+](=O)[O-]` (centres undefined), the melting point lay within 110 to 111 °C.

The compound `C=C(C)C(=O)Oc1cc(C(=O)OCC)cc(O)c1O` had a melting point of 106 to 108 °C.

For the compound `CC(C)(C)NCC(O)COc1cccc(C#N)c1` (centres undefined), the melting point fell in the range of 108 to 110 °C.

The compound `CCCN(CCC)C(=O)n1cnc(S(=O)(=O)CC)n1` had a melting point of 44 to 45 °C.

On to `O=C(Cc1ccccc1)NC1SCCN1Cc1ccc(Cl)nc1` (centres undefined), for which the melting point fell in the range of 157 to 158 °C.

For the compound `CS(=O)(=O)c1ccc(-c2nc(-c3cc4ccccc4o3)[nH]c2-c2ccc(F)cc2)cc1`, the melting point lay within 235 to 237 °C.

Take `O=C(O)c1c(F)cc(OCCNC(=O)C2Cc3ccccc3N2S(=O)(=O)c2ccc(-c3ccc(F)cc3Cl)cc2)cc1F` (centres undefined): the melting point fell in the range of 75 to 80 °C.

For the compound `O=C(O)C=CC(=O)c1cccs1`, the melting point is 139 to 142 °C.

As for `CS(=O)(=O)NCCN1CCC(CO)CC1`, the melting point was in the range of 81 to 82 °C.

For `Cn1c(=O)c2c(nc(/C=C/c3ccc4c(c3)OCO4)n2C)n(C)c1=O`, the melting point is over 300 °C.

In turn, `Cc1sc(C)c(Cc2nc3c(F)c(F)cc(F)c3s2)c1CC(=O)O` came in with a melting point of 170 to 171 °C.

For the compound `COc1ccc(N2C(=O)C(N3C(=O)c4ccccc4C3=O)C2C(C)=Cc2ccccc2)cc1` (centres undefined), the melting point was in the range of 105 to 107 °C.

Take `CNC(=O)C(=NOC)c1ccccc1COc1ncc(C)cc1C(=O)OC(C)C`: the melting point lay in the range of 165 to 166 °C.

On to `Oc1ccc(Cl)cc1C(O)(C1CCCCC1)C1CCCCC1`, for which the melting point stood at 230 °C.

In the case of `NC(=S)Nc1c(Br)cccc1Br`, the melting point lay in the range of 186 to 189 °C.

`COc1cc(OC)cc(OCCCCCN2CCC(CNC(=O)c3cc(Cl)c(N)cc3OC)CC2)c1` showed a melting point of 112 to 113 °C.

For `CCCc1cc2cc(O)c(Cl)c(Cl)c2s1`, the melting point is 50 to 51 °C.

For the compound `O=C(O)c1ccc(N2CCCCC2)c(NC(=O)C(CS)Cc2ccccc2)c1` (centres undefined), the melting point is 142 to 146 °C.

Consider `O=C1Nc2ccc(I)cc2C1=NNC(=O)c1cccc(Oc2ccccc2)c1`, for which the melting point was determined as 283 °C.

The compound `CCOC(=O)c1cn(CCF)c2c(F)c(C(C)=O)c(F)cc2c1=O` gave a melting point of 155 to 156 °C.

Take `CCOCc1cc(OC)c(-c2ccc(C[C@H](NC(=O)c3c(Cl)cccc3Cl)C(=O)O)cc2)c(OC)c1`: the melting point was 196 to 198 °C.

Turning to `CCCCCP(=S)(CCCCC)NP(=S)(CCCCC)CCCCC`, the melting point was 59 to 63.5 °C.

Regarding `O=C(O)CCCCCCCCCCOc1ccccc1`, the melting point was 76 to 78 °C.

For `CC(=O)OC1CSC(Oc2ccc(C#N)nc2)C(OC(C)=O)C1OC(C)=O` (centres undefined), the melting point came to 147 °C.

In turn, `O=C(O)CC(Sc1ccc(Cl)cc1)c1ccccc1` (centres undefined) registered a melting point of 90 to 92 °C.

`CC(C)(CC(=O)O)SC(CCCc1ccccc1)c1ccc(OCc2ccc3ccccc3n2)cc1` (centres undefined) displayed a melting point of 90 to 92 °C.

Consider `CC(=O)OCCc1c([N+](=O)[O-])cc(OCc2ccccc2)c2ccccc12`, for which the melting point is 82 to 87 °C.

In the case of `Cc1ccc(S(=O)(=O)NC2(C)c3ccccc3C=Cc3ccccc32)cc1`, the melting point was 175 to 178 °C.

As to `CC(C)Cn1cnc2c(N)nc3c(c21)NCCC3`, the melting point lay within 222 to 226 °C.

Compound `O=C(O)[C@H](Cc1ccc(C(F)(F)F)cc1)[C@@H](O)c1cccc(F)c1` (racemic) gave a melting point of 128 to 129 °C.

As to `Cc1cc(C(=O)N(C2CCCCC2)C2CCCC2)ccc1Br`, the melting point lay in the range of 125 to 127 °C.

In the case of `COC(=O)C(C)Oc1cc(Cl)ccc1COc1ccc(-c2nn(C)c(OC(F)F)c2Cl)cc1` (centres undefined), the melting point was 61 to 64 °C.

For `CCOC(=O)CCCn1nnnc1-c1ccc2c(c1)[C@@H](Nc1ccnc(SC)n1)[C@](C)(O)C(C)(C)O2`, the melting point is 115 to 130 °C.

Regarding `COc1ccc(S(=O)(=O)n2ccc3ccccc32)cc1`, the melting point was 124 to 126 °C.

As to `CCOCc1c(-c2ccc(OC(F)F)c(OC3CC3)c2)[nH]c2cn[nH]c(=O)c12`, the melting point fell in the range of 141 to 143 °C.

Consider `O=C(O)C(Cc1ccccc1)C(=O)NOCc1ccccc1` (centres undefined), for which the melting point worked out at 147 °C.

The compound `N#Cc1cc(OCF)cc([N+](=O)[O-])c1Cl` yielded a melting point of 27 to 28 °C.

Compound `CC(C)Nc1nc2cc(Cl)c(Cl)cc2n1[C@H]1O[C@@H](C)[C@H](O)[C@@H]1O` came in with a melting point of 103 to 105 °C.

The compound `CCOC(=S)c1csc2nc(Cc3ccccc3)cn12` came in with a melting point of 83 to 84 °C.

`CC(=Cc1cnc2nc(N)nc(N)c2c1)c1ccc(C(=O)OC(C)(C)C)cc1` came in with a melting point of over 300 °C.

`Cc1[nH]c(C(=O)NCC2CCCCC2)c(C)c1-c1nc2ccc(C(=O)c3ccccc3)cc2[nH]1` displayed a melting point of 254 to 255 °C.

`Cc1nc(CC(=O)NCc2cccc3c2C(=O)N(C2CCC(=O)NC2=O)C3=O)c(C)s1` (centres undefined) showed a melting point of 140 to 142 °C.

Take `N#Cc1ccc(NC(=O)NCCCN2CCN(CCCc3ccc(Cl)cc3)CC2)cc1`: the melting point is 219 to 221 °C.

`O=C(c1ccc(F)c(Cl)c1)N1CCC(F)(CNCc2ccc(CF)cn2)CC1` showed a melting point of 157 to 159 °C.

Consider `Cn1c(=O)[nH]c2cc(F)ccc21`, for which the melting point was 207 °C.

On to `CN(CC(=O)c1ccc(N2CCOCC2)cc1)C(=O)OC(C)(C)C`, for which the melting point lay within 87 to 89 °C.

`c1ccc(CCN2CCN(c3n[nH]c4c3Cc3ccccc3-4)CC2)cc1` returned a melting point of 212 to 214 °C.

As to `CC(C)(C)OC(=O)Nc1cc(COC2CCCCO2)c(-c2ccc(F)cc2)cc1N` (centres undefined), the melting point lay in the range of 139 to 142 °C.

Turning to `N#Cc1cccc(NC(=O)NC2N=C(c3ccccc3F)c3ccccc3N(CC(=O)N3CC4CCC(CC4)C3)C2=O)c1` (racemic), the melting point was in the range of 188 to 195 °C.

Turning to `O=C(O)c1cccc(C(=O)CCl)n1`, the melting point was 184 to 189 °C.

As to `Cc1cc2cc(CN3CCC(CCC(N)=O)CC3)cnc2cc1NC(=O)c1ccc(-c2ccc(F)cc2)cc1`, the melting point was in the range of 223 to 227 °C.

With `Cc1ncc(C#N)c(Nc2ccc3[nH]ccc3c2C)c1-c1ccc(OCCN2CCN(C)CC2)cc1`, the melting point is 183 to 184 °C.

As to `CN(Cc1ccccc1)c1cc(Oc2cccc(C(F)(F)F)c2)nc(C(=O)Nc2ccccc2)c1`, the melting point was 111 to 114 °C.

On to `Cn1cnc2cc(C(c3ccccc3)n3ccnc3)ccc21` (centres undefined), for which the melting point is 139 °C.

In turn, `C#CCc1c(F)c(F)c(CO)c(F)c1F` returned a melting point of 51 to 52 °C.

`COc1ccc2c(c1)c(C(C)=NOC1CCCCO1)c(C)n2C(=O)c1ccc(Cl)cc1` (centres undefined): the melting point lay in the range of 115 to 119 °C.

In the case of `O=C1c2ccccc2C(=O)N1CCCOC(Cl)Cl`, the melting point was 101 to 103 °C.

For the compound `CCCc1ccc(-c2ccc3c(c2)C=C(C(=O)Nc2ccc(CN(C)C4CCOCC4)cc2)CCS3(=O)=O)cc1`, the melting point was in the range of 247 to 250 °C.

`COc1nc2cc([N+](=O)[O-])c(C)c(C(=O)Cl)c2nc1OC` returned a melting point of 162 to 164 °C.

As for `COc1cc(-c2nc(-n3c(C)ccc3C)sc2SCC2CCCC2)c(OC)cc1C`, the melting point amounted to 108 °C.

`O=C1CN(c2ccc(Cc3ccccc3)cc2)C(=S)N1Cc1ccccc1` registered a melting point of 107 °C.

On to `CN1C(=O)Cn2c(-c3ccccc3)nnc2-c2cc(Cl)ccc21`, for which the melting point was in the range of 204 to 206 °C.

In the case of `COc1c(F)ccc2c(C3CCN(C(=O)OC(C)(C)C)CC3)noc12`, the melting point lay in the range of 94 to 96 °C.

In turn, `COCn1c(-c2nc3c(OC)ccc(N4CCOCC4)c3s2)nc2ccc(N3CCC(O)CC3)nc21` displayed a melting point of 120 to 130 °C.

`CC(C)n1cc(C(=O)O)c2ccc([N+](=O)[O-])cc21` registered a melting point of 242 to 243 °C.

`Nc1nc(N)c(-c2cc(Cl)cc(Cl)c2Cl)c(CO)n1` showed a melting point of 101 to 105 °C.
